Where a name gives a salt, the structure may show the parent alone.
What was measured:
[1] = system: ENR+CD organoids (ISC to Paneth cell differentiation); test: Primary screen: basal (non-stimulated) lysozyme secretion LYZ.NS, 2.5-D 384-well ENR+CD organoid differentiation; assay type: cell-based, mouse
Excerpt: (§1) High-throughput screening.

[2] = system: ENR+CD organoids (ISC to Paneth cell differentiation); test: Primary screen: CCh-stimulated lysozyme secretion LYZ.S, 2.5-D 384-well ENR+CD organoid differentiation; assay type: cell-based, mouse; conditions: primary screen
Excerpt: as §1

ENR+CD organoids = test: Primary screen: ATP (CellTiter-Glo 3D, CTG) cell number/viability, 2.5-D 384-well ENR+CD organoids;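 note: compounds given at plating and again on day 3 over a 6-day differentiation from ENR+CV stem-cell-enriched precursors, ATP measured on day 6, plate median as control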
[3] = primary screen, dose 0.08 uM, standard z score
[4] = primary screen, dose 0.40 uM, standard z score
[5] = primary screen, dose 2.00 uM, standard z score
[6] = primary screen, dose 10.00 uM, standard z score
[7] = primary screen; dose 0.08 uM; FC vs plate median
[8] = primary screen; dose 0.40 uM; FC vs plate median
[9] = primary screen; dose 2.00 uM; FC vs plate median
[10] = primary screen; dose 10.00 uM; FC vs plate median
[11] = primary screen, standard z score, dose 0.08 uM
[12] = primary screen, standard z score, dose 0.40 uM
[13] = primary screen, standard z score, dose 2.00 uM
[14] = primary screen, standard z score, dose 10.00 uM

| SMILES | Dose.FC.LYZ.NS ([1]; primary screen, dose 0.08 uM) [log2 fold change] | Z.LYZ.NS (standard z score) ([1]; primary screen, dose 0.08 uM) | Dose.FC.LYZ.NS ([1]; primary screen, dose 0.40 uM) [log2 fold change] | Z.LYZ.NS (standard z score) ([1]; primary screen, dose 0.40 uM) | Dose.FC.LYZ.NS ([1]; primary screen, dose 2.00 uM) [log2 fold change] | Z.LYZ.NS (standard z score) ([1]; primary screen, dose 2.00 uM) | Dose.FC.LYZ.NS ([1]; primary screen, dose 10.00 uM) [log2 fold change] | Z.LYZ.NS (standard z score) ([1]; primary screen, dose 10.00 uM) | Dose.FC.LYZ.S ([2]; dose 0.08 uM) [log2 fold change] | Dose.FC.LYZ.S ([2]; dose 0.40 uM) [log2 fold change] | Dose.FC.LYZ.S ([2]; dose 2.00 uM) [log2 fold change] | Dose.FC.LYZ.S ([2]; dose 10.00 uM) [log2 fold change] | Dose.FC.CTG (ENR+CD organoids; primary screen, dose 0.08 uM) [log2 fold change] | Z.CTG (standard z score) (ENR+CD organoids; primary screen, dose 0.08 uM) | Dose.FC.CTG (ENR+CD organoids; primary screen, dose 0.40 uM) [log2 fold change] | Z.CTG (standard z score) (ENR+CD organoids; primary screen, dose 0.40 uM) | Dose.FC.CTG (ENR+CD organoids; primary screen, dose 2.00 uM) [log2 fold change] | Z.CTG (standard z score) (ENR+CD organoids; primary screen, dose 2.00 uM) | Dose.FC.CTG (ENR+CD organoids; primary screen, dose 10.00 uM) [log2 fold change] | Z.CTG (standard z score) (ENR+CD organoids; primary screen, dose 10.00 uM) | other results |
| --- | --- | --- | --- | --- | --- | --- | --- | --- | --- | --- | --- | --- | --- | --- | --- | --- | --- | --- | --- | --- | --- |
| CC(C)(F)C[C@H](N[C@@H](c1ccc(-c2ccc(S(C)(=O)=O)cc2)cc1)C(F)(F)F)C(=O)NC1(C#N)CC1 [Odanacatib (MK-0822)] |  |  |  |  |  |  |  |  |  |  |  |  |  |  |  |  |  |  |  |  | Z.LYZ.NS [1, 3]: 0.752; Z.LYZ.NS [1, 4]: 1.409; Z.LYZ.NS [1, 5]: 0.212; Z.LYZ.NS [1, 6]: −0.307; Dose.FC.LYZ.NS [1, 7]: 0.086 log2 fold change; Dose.FC.LYZ.NS [1, 8]: 0.162 log2 fold change; Dose.FC.LYZ.NS [1, 9]: 0.024 log2 fold change; Dose.FC.LYZ.NS [1, 10]: −0.035 log2 fold change; Dose.FC.LYZ.S ([2]; dose 0.08 uM, FC vs plate median): 0.091 log2 fold change; Dose.FC.LYZ.S ([2]; dose 0.40 uM, FC vs plate median): 0.170 log2 fold change; Dose.FC.LYZ.S ([2]; dose 2.00 uM, FC vs plate median): 0.036 log2 fold change; Dose.FC.LYZ.S ([2]; dose 10.00 uM, FC vs plate median): −0.074 log2 fold change; Z.CTG (ENR+CD organoids; [3]): 0.285; Z.CTG (ENR+CD organoids; [4]): 0.496; Z.CTG (ENR+CD organoids; [5]): −0.020; Z.CTG (ENR+CD organoids; [6]): 0.015; Dose.FC.CTG (ENR+CD organoids; [7]): 0.119 log2 fold change; Dose.FC.CTG (ENR+CD organoids; [8]): 0.208 log2 fold change; Dose.FC.CTG (ENR+CD organoids; [9]): −0.008 log2 fold change; Dose.FC.CTG (ENR+CD organoids; [10]): 0.006 log2 fold change |
| COc1cc(N2CCN(C)CC2)ccc1Nc1nccc(-c2cn(C)c3cnccc23)n1 [AZ191] | 0.128 | 1.111 | 0.082 | 0.717 | 0.058 | 0.507 | −0.148 | −1.289 | 0.143 | 0.199 | 0.097 | −0.200 | 0.292 | 0.697 | 0.337 | 0.804 | 0.150 | 0.358 | −0.533 | −1.272 |  |
| O=C(c1cn(Cc2cncn2Cc2ccc(Br)cc2)cc1-c1cccc2ccccc12)N1CCOCC1 [LB42708] |  | −1.010 |  | −1.221 |  | −1.531 |  | −1.587 |  |  |  |  |  | −0.172 |  | −0.817 |  | −0.277 |  | −1.685 | Dose.FC.LYZ.NS (log2 fold change) ([1]; primary screen, dose 0.08 uM): −0.116; Dose.FC.LYZ.NS (log2 fold change) ([1]; primary screen, dose 0.40 uM): −0.140; Dose.FC.LYZ.NS (log2 fold change) ([1]; primary screen, dose 2.00 uM): −0.176; Dose.FC.LYZ.NS (log2 fold change) ([1]; primary screen, dose 10.00 uM): −0.182; Dose.FC.LYZ.S (log2 fold change) ([2]; dose 0.08 uM): −0.089; Dose.FC.LYZ.S (log2 fold change) ([2]; dose 0.40 uM): −0.144; Dose.FC.LYZ.S (log2 fold change) ([2]; dose 2.00 uM): −0.238; Dose.FC.LYZ.S (log2 fold change) ([2]; dose 10.00 uM): −0.233; Dose.FC.CTG (log2 fold change) (ENR+CD organoids; primary screen, dose 0.08 uM): −0.072; Dose.FC.CTG (log2 fold change) (ENR+CD organoids; primary screen, dose 0.40 uM): −0.342; Dose.FC.CTG (log2 fold change) (ENR+CD organoids; primary screen, dose 2.00 uM): −0.116; Dose.FC.CTG (log2 fold change) (ENR+CD organoids; primary screen, dose 10.00 uM): −0.706 |
| CN1CCC[C@@H]1CCO[C@](C)(c1ccccc1)c1ccc(Cl)cc1 [Clemastine Fumarate] | 0.024 |  | −0.026 |  | −0.014 |  | −0.061 |  | 0.096 | −0.066 | −0.048 | 0.001 | 0.242 |  | 0.036 |  | 0.024 |  | −0.424 |  | Z.LYZ.NS [1, 11]: 0.210; Z.LYZ.NS [1, 12]: −0.227; Z.LYZ.NS [1, 13]: −0.124; Z.LYZ.NS [1, 14]: −0.534; Z.CTG (ENR+CD organoids; [11]): 0.578; Z.CTG (ENR+CD organoids; [12]): 0.086; Z.CTG (ENR+CD organoids; [13]): 0.058; Z.CTG (ENR+CD organoids; [14]): −1.013 |
| Clc1ccc(N/N=C(\c2ccccc2)c2ccccn2)nc1 [JIB-04] |  | 1.549 |  | 0.264 |  | 0.048 |  | −1.330 |  |  |  |  |  | 0.607 |  | 0.258 |  | 0.219 |  | −0.433 | Dose.FC.LYZ.NS (log2 fold change) ([1]; primary screen, dose 0.08 uM): 0.178; Dose.FC.LYZ.NS (log2 fold change) ([1]; primary screen, dose 0.40 uM): 0.030; Dose.FC.LYZ.NS (log2 fold change) ([1]; primary screen, dose 2.00 uM): 0.006; Dose.FC.LYZ.NS (log2 fold change) ([1]; primary screen, dose 10.00 uM): −0.153; Dose.FC.LYZ.S (log2 fold change) ([2]; dose 0.08 uM): 0.203; Dose.FC.LYZ.S (log2 fold change) ([2]; dose 0.40 uM): 0.084; Dose.FC.LYZ.S (log2 fold change) ([2]; dose 2.00 uM): −0.056; Dose.FC.LYZ.S (log2 fold change) ([2]; dose 10.00 uM): −0.085; Dose.FC.CTG (log2 fold change) (ENR+CD organoids; primary screen, dose 0.08 uM): 0.254; Dose.FC.CTG (log2 fold change) (ENR+CD organoids; primary screen, dose 0.40 uM): 0.108; Dose.FC.CTG (log2 fold change) (ENR+CD organoids; primary screen, dose 2.00 uM): 0.092; Dose.FC.CTG (log2 fold change) (ENR+CD organoids; primary screen, dose 10.00 uM): −0.181 |
| Cc1c(C(=O)Nc2ccc(N3C[C@@H](C)O[C@@H](C)C3)nc2)cccc1-c1ccc(OC(F)(F)F)cc1 [LDE225 (NVP-LDE225, Erismodegib)] |  | 0.739 |  | 0.881 |  | 0.094 |  | 0.426 |  |  |  |  |  | 0.255 |  | 0.159 |  | 0.546 |  | −0.002 | Dose.FC.LYZ.NS (log2 fold change) ([1]; primary screen, dose 0.08 uM): 0.085; Dose.FC.LYZ.NS (log2 fold change) ([1]; primary screen, dose 0.40 uM): 0.101; Dose.FC.LYZ.NS (log2 fold change) ([1]; primary screen, dose 2.00 uM): 0.011; Dose.FC.LYZ.NS (log2 fold change) ([1]; primary screen, dose 10.00 uM): 0.049; Dose.FC.LYZ.S (log2 fold change) ([2]; dose 0.08 uM): 0.095; Dose.FC.LYZ.S (log2 fold change) ([2]; dose 0.40 uM): 0.074; Dose.FC.LYZ.S (log2 fold change) ([2]; dose 2.00 uM): 0.002; Dose.FC.LYZ.S (log2 fold change) ([2]; dose 10.00 uM): 0.006; Dose.FC.CTG (log2 fold change) (ENR+CD organoids; primary screen, dose 0.08 uM): 0.107; Dose.FC.CTG (log2 fold change) (ENR+CD organoids; primary screen, dose 0.40 uM): 0.067; Dose.FC.CTG (log2 fold change) (ENR+CD organoids; primary screen, dose 2.00 uM): 0.229; Dose.FC.CTG (log2 fold change) (ENR+CD organoids; primary screen, dose 10.00 uM): −0.001 |
| CC(=O)Nc1nc2c(Oc3cc(-c4ccc(C(F)(F)F)cc4)ncn3)cccc2s1 [AMG-517] | 0.020 | 0.178 | 0.060 | 0.522 | −0.006 | −0.051 | 0.031 | 0.267 | 0.084 | 0.060 | 0.002 | 0.266 | 0.161 |  | 0.113 |  | 0.112 |  | 0.056 |  |  |
| CCOC(=O)N1c2ccc(C(F)(F)F)cc2[C@@H](N(Cc2cc(C(F)(F)F)cc(C(F)(F)F)c2)C(=O)OC)C[C@H]1CC [Torcetrapib] | 0.114 | 0.991 | −0.063 | −0.546 | −0.136 | −1.185 | −0.012 | −0.108 | 0.320 | 0.045 | −0.098 | −0.056 | 0.283 |  | 0.061 |  | −0.121 |  | −0.151 |  |  |

From patent US20220323406A1, “METHODS AND COMPOSITIONS FOR DIFFERENTIATING STEM CELLS” (Massachusetts Institute of Technology, priority 2019, published 2022)
